{"source": "patent US20250360148A1", "about": "“SOLID DISPERSIONS OF PSILOCYBIN” (Cybin IRL Limited, priority 2022, published 2025)", "key": {"[1]": {"experiment": "XRPD characterization of freeze-dried solid dispersions, physical mixtures and starting material", "format": "physicochemical", "settings": "as prepared; solid form of psilocybin (PY) in freeze-dried dispersion, physical mixture or starting material", "procedure": "The samples were prepared in silicon low background holders using light manual pressure to keep the sample surface flat and level with the reference surface of the sample holder. The single crystal Si low background holder has a circular recess (10 mm diameter and about 0.2 mm depth) that holds the sample.\nThe Rigaku Smart-Lab diffraction system used was configured for Bragg-Brentano reflection geometry using a line source X-ray beam. The Bragg-Brentano geometry was controlled by passive divergence and receiving slits with the sample itself acting as the focusing component for the optics. The figures were created using PlotMon V2.1.1.0.\nHigh-resolution XRPD analysis was performed using Rigaku Smart-Lab diffraction system configured for Debye-Scherrer transmission geometry. The Debye-Scherrer convergent beam geometry utilizes a curved x-ray mirror to focus the incident beam through the sample and onto the detector plane. The axial divergence of the X-ray beam was controlled by 5.0° Soller slits in both the incident and diffracted beam paths.\nFreeze-dried solid dispersions of Examples 1-5, and corresponding Reference Examples, were characterized using X-ray powder diffraction (XRPD)."}, "[2]": {"experiment": "Characterization and 40° C. closed-vial stability of spray dried solid dispersions (XRPD, mDSC, TGA)", "format": "physicochemical", "settings": "t = 0, spray dried", "procedure": "X-ray power diffraction (XRPD): XRPD patterns were collected on a Bruker AXS D2 diffractometer using Cu Kα radiation (30 kV, 10 mA), […], using a LynxEye detector from 5-42 °2θ.\nThe details of the data collection are: • Angular range: 5 to 42 °2θ • Step size: 0.024° 2θ • Collection time: 0.1 seconds per step.\nSamples were run under ambient conditions and prepared as flat plate specimens using powder without grinding. Approximately 1-2 mg of the sample was lightly pressed on a silicon wafer to obtain a flat surface.\nModulated differential scanning calorimetry (mDSC): TOPEM® is a temperature modulated DSC method which differs from conventional DSC in allowing the total heat flow to be separated into reversing and non-reversing heat flow components. Such techniques help distinguish between processes or transitions that overlap or lie very close to one another. The glass transition temperature (Tg) was determined from the reversible heatflow component.\nTOPEM® DSC data were collected on a Mettler DSC 3+ equipped with a 34 position auto-sampler. The instrument was calibrated for energy and temperature using certified indium. Typically, 3-5 mg of each sample, in a pin-holed aluminium pan, was heated at 2 K·min^−1 from 30° C. to 220° C. with a pulse height of 0.64 K and a pulse width 15-30 sec. A nitrogen purge at 50 mL·min^−1 was maintained over the sample. […]"}, "[3]": {"settings": "cited from earlier work"}}, "note": "Marks after values point to notes of the source that are not given here.", "data": [{"smiles": "CN(C)CCc1c[nH]c2cccc(OP(=O)(O)O)c12", "note": "[Crystalline PY starting material, 3-(2-(dimethylamino)ethyl)-1H-indol-4-yl dihydrogen phosphate]", "values": [{"measurement": "XRPD Results", "setting": "[1]", "value": "crystalline PY (methanol solvate)^a"}]}, {"smiles": "CN(C)CCc1c[nH]c2cccc(OP(=O)(O)O)c12", "note": "[Psilocybin (PY), 3-(2-(dimethylamino)ethyl)-1H-indol-4-yl dihydrogen phosphate]", "values": [{"measurement": "XRPD", "setting": "[2]", "value": "Amorphous"}, {"measurement": "Tg", "setting": "[2]; mDSC", "value": 161, "unit": "°C"}]}, {"smiles": "CN(C)CCc1c[nH]c2cccc(OP(=O)(O)O)c12", "note": "[amorphous psilocybin]", "values": [{"measurement": "Tg (midpoint)", "setting": "[3]; reported by Greenan et al.", "value": 163, "unit": "°C"}, {"measurement": "physical stability of the amorphous form without polymer", "setting": "[3]; variety of stress conditions, Greenan et al.", "value": "known to crystallize"}]}]}
